Reference: ChEMBL document CHEMBL1158228, “Anti-HIV triterpene acids from Geum japonicum” (J Nat Prod, 1996)

What follows are compounds tested against Protease (Human immunodeficiency virus 1) (UniProt Q9YQ12) (assay: Inhibition of HIV1 recombinant protease expressed in Escherichia coli DH5alpha at 17.9 ug/mL after 2 hrs by HPLC assay).
Protease (Human immunodeficiency virus 1), sequence (Q9YQ12 as listed by the source): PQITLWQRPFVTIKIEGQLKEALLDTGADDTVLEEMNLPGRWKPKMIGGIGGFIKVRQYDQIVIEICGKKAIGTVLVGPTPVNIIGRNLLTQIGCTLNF

In order of falling inhibition:
1. CC1(C)CC[C@]2(C(=O)O)CC[C@]3(C)C(=CC[C@@H]4[C@@]5(C)C[C@@H](O)[C@H](O)C(C)(C)[C@@H]5CC[C@]43C)[C@@H]2C1  100%
2. C[C@H]1[C@H](C)CC[C@]2(C(=O)O)CC[C@]3(C)C(=CC[C@@H]4[C@@]5(C)CC[C@H](O)C(C)(C)[C@@H]5CC[C@]43C)[C@H]12  85%
3. C[C@@H]1CC[C@]2(C(=O)O)CC[C@]3(C)C(=CC[C@@H]4[C@@]5(C)C[C@@H](O)C(=O)C(C)(C)[C@@H]5CC[C@]43C)[C@@H]2[C@]1(C)O  72%
4. C[C@@H]1CC[C@]2(C(=O)O)CC[C@]3(C)C(=CC[C@@H]4[C@@]5(C)C[C@@H](O)[C@H](O)C(C)(C)[C@@H]5CC[C@]43C)[C@@H]2[C@]1(C)O  49%
5. C[C@@H]1CC[C@]2(C(=O)O)CC[C@]3(C)C(=CC[C@@H]4[C@@]5(C)CC[C@@H](O)C(C)(C)[C@@H]5CC[C@]43C)[C@@H]2[C@]1(C)O  42%
6. C[C@@H]1CC[C@]2(C(=O)O)CC[C@]3(C)C(=CC[C@@H]4[C@@]5(C)C[C@@H](O)[C@@H](O)C(C)(C)[C@@H]5CC[C@]43C)[C@@H]2[C@]1(C)O  0%
